From patent publication US20240425464A1, “Substituted Monohydrazides as Potent Antifungal Agents” (University of Kentucky Research Foundation, priority 2023, published 2024)
Converted amounts (≈) assume the structure as drawn. Read-outs that look alike come from different tables or passages of the source.

Legend:
Assay in all cases: MIC determination by in vitro antifungal assay
Type in all cases: cell-based
[1] = system: Candida glabrata ATCC 2001 (H); details: ATCC 2001 in text
Protocol: (§1) 10 mg/mL stock solutions of compounds 1a-9j were prepared in dimethyl sulfoxide (DMSO) and were stored at −20° C. in the dark. The antifungal agent amphotericin B (AmB) was purchased from VWR (Radnor PA, USA). AmB was dissolved in DMSO at a final concentration of 5 mg/mL and was stored at −20° C., protected from light. Candida albicans American Type Culture Collection (ATCC) 10231 (strain A), C. albicans ATCC 64124 (B), and C. albicans ATCC MYA-2876 (C) were obtained from Utah State University. C. albicans ATCC 90819 (D), C. albicans ATCC MYA-2310 (E), C. albicans ATCC MYA-1237 (F), C. albicans ATCC MYA-1003 (G), Candida glabrata ATCC 2001 (H), Candida krusei ATCC 6258 (I), Candida parapsilosis ATCC 22019 (J), Cryptococcus neoformans ATCC MYA-895 (M), Aspergillus terreus ATCC MYA-3633 (N), and Aspergillus flavus ATCC MYA-3631 (0) were obtained from the American Type Culture Collection (ATCC; Manassas, VA, USA). Aspergillus nidulans ATCC 38163 (P) was obtained from University of Kentucky. Clinically derived Aspergillus fumigatus NRRL 163 (Q), A. fumigatus NRRL 5109 (R), and A. fumigatus NRRL 6113 (S) were obtained from Northern Regional Research Laboratory (NRRL). Candida auris 384 (K), C. auris 390 (L), and fungal strains 381-400 (including 10 C. auris (AR Bank #381-390), 3 Candida duobushaemulonii (AR Bank #391, AR Bank #392, and AR Bank #394), 2 Candida haemulonii (AR Bank #393 and AR Bank #395), 1 Kodameae ohmeri (AR Bank #396), 1 C. krusei (AR Bank #397), 1 Candida lusitaniae (AR Bank #398), and 2 Saccharomyces cerevisiae strains (AR Bank #399 and AR Bank #400)) were part of a larger fungal library from the AR Bank maintained by the Centers for Disease Control and Prevention (CDC; Atlanta, GA, USA). Filamentous fungi and yeasts were cultivated at 35° C. in RPMI 1640 medium (with L-glutamine, without sodium bicarbonate, Sigma-Aldrich, St. Louis, MO) buffered to a pH of 7.0 with 0.165 M morpholinepropanesulfonic acid (MOPS) buffer (Sigma-Aldrich). For cytotoxicity assays, HepG2 and the mouse macrophage cell line J774A.1 were obtained from University of Kentucky. The human embryonic kidney cell line, HEK-293, was bought from the ATCC. Mammalian cells were grown in Dulbecco's Modified Eagle's Medium (DMEM) (from VWR) with 10% fetal bovine serum (FBS) (from VWR) and 1% Pen/Strep (from ATCC). Cell lines were cultured at 37° C. with 5% CO2 and passaged by trypsinization with 0.05% trypsin: 0.53 mM EDTA (from Sigma-Aldrich).
(§2) The MIC values of compounds 1a-9j against yeast cells (strains A-P and 381-400) were determined in 96-well plates as described in the CLSI documents M27-A3 and M38-A2 with minor modifications.^2 A single colony of freshly prepared yeast cells was used to inoculate 5 mL of yeast extract peptone dextrose (YPD) broth prior to incubation overnight with shaking at 200 rpm at 35° C. From the actively growing yeast culture, 100 µL were then transferred to 900 μL of RPMI 1640 medium and re-adjusted to achieve OD600 of 0.12 (˜1×10^6 CFU/mL). The cell suspension was further diluted to achieve 1:100 in RPMI 1640 medium. 100 μL of cells were added to the wells of a 96-well microtiter plates that contained 100 µL of the compound solution to obtain concentrations of 0.06-31.3 μg/mL of compounds 1a-9j or AmB prior to incubation for 48 h at 35° C. […]

[2] = system: Candida krusei ATCC 6258 (I)
Protocol: as §1, §2

[3] = system: Candida parapsilosis ATCC 22019 (J)
Protocol: as §1, §2

[4] = system: Aspergillus flavus ATCC MYA-3631 (O); details: strain O = A. flavus ATCC MYA-3631
Protocol: as §1
(§3) The MIC values of compounds 1a-9j against yeast cells (strains A-P and 381-400) were determined in 96-well plates as described in the CLSI documents M27-A3 and M38-A2 with minor modifications.^2 A single colony of freshly prepared yeast cells was used to inoculate 5 mL of yeast extract peptone dextrose (YPD) broth prior to incubation overnight with shaking at 200 rpm at 35° C. From the actively growing yeast culture, 100 µL were then transferred to 900 μL of RPMI 1640 medium and re-adjusted to achieve OD600 of 0.12 (˜1×10^6 CFU/mL). The cell suspension was further diluted to achieve 1:100 in RPMI 1640 medium. 100 μL of cells were added to the wells of a 96-well microtiter plates that contained 100 µL of the compound solution to obtain concentrations of 0.06-31.3 μg/mL of compounds 1a-9j or AmB prior to incubation for 48 h at 35° C.
(§4) Finally, the activity of these monohydrazides was explored against […] non-Candida strains: Cryptococcus neoformans ATCC MYA-895 (M), Aspergillus terreus ATCC MYA-3633 (N), Aspergillus flavus ATCC MYA-3631 (O), Aspergillus nidulans ATCC 38163 (P), Aspergillus fumigatus NRRL 163 (Q), A. fumigatus NRRL 5109 (R), and A. fumigatus NRRL 6113 (S) (Tables 1A and 1B). The double dilution method was used with concentrations ranging from 0.06 to 31.3 j·tg mL^−1 for monohydrazides 1a-9j, and the commercially available positive antifungal control amphotericin B (AmB).

[5] = system: Aspergillus nidulans ATCC 38163 (P)
Protocol: as §1, §3, §4

[6] = system: Aspergillus terreus ATCC MYA-3633 (N); details: strain N = A. terreus ATCC MYA-3633
Protocol: as §1, §3, §4

[7] = system: Cryptococcus neoformans ATCC MYA-895 (M); details: strain M = C. neoformans ATCC MYA-895
Protocol: as §1, §3, §4

[8] = strain H = C. glabrata ATCC 2004 (footnote)
[9] = strain J = C. parapsilosis ATCC 22019
[10] = strain P = A. nidulans ATCC 38163
[11] = Nakaseomyces glabratus, ATCC 2001 / ATCC 2004, strain H = C. glabrata ATCC 2004 (footnote), read-out: MIC
[12] = Pichia kudriavzevii, ATCC6258, strain I = C. krusei ATCC 6258, read-out: MIC
[13] = Lodderomyces parapsilosis, ATCC22019, strain J = C. parapsilosis ATCC 22019, read-out: MIC
[14] = Aspergillus flavus, read-out: MIC
[15] = Aspergillus nidulans, ATCC38163, strain P = A. nidulans ATCC 38163, read-out: MIC
[16] = Aspergillus terreus, read-out: MIC
[17] = Cryptococcus neoformans, read-out: MIC

Row | SMILES | MIC [1, 8] [μg/mL^−1] | MIC ([2]; strain I = C. krusei ATCC 6258) [μg/mL^−1] | MIC [3, 9] [μg/mL^−1] | MIC [4] [μg/mL^−1] | MIC [5, 10] [μg/mL^−1] | MIC [6] [μg/mL^−1] | MIC [7] [μg/mL^−1] | MIC [1, 11] [µg/mL] | MIC [2, 12] [µg/mL] | MIC [3, 13] [µg/mL] | MIC [4, 14] [µg/mL] | MIC [5, 15] [µg/mL] | MIC [6, 16] [µg/mL] | MIC [7, 17] [µg/mL]
1 | COc1ccc(NNC(=O)c2ccc(F)cn2)cc1 [Compound 3f] | 1.95 | 0.24 | 3.9 | >31.3 | 1.95 | 31.3 | ≤0.06 | – | – | – | – | – | – | –
2 | O=C(NNc1ccc(F)cc1F)c1ncc(F)cc1F [Compound 7g] | – | – | – | – | – | – | – | > 31.3 | 0.98 (≈ 3.44 µM) | 31.3 (≈ 110 µM) | > 31.3 | 0.98 (≈ 3.44 µM) | 7.8 (≈ 27.3 µM) | 0.98 (≈ 3.44 µM)
3 | O=C(NNc1ccc(Cl)cc1)c1cccc(F)n1 [Compound 5e] | 3.9 | 1.95 | 15.6 | >31.3 | 7.8 | 31.3 | 1.95 | – | – | – | – | – | – | –
4 | O=C(NNc1cccc(Cl)c1)c1ccccn1 [Compound 2b] | 1.95 | 0.49 | 1.95 | >31.3 | 0.24 | 0.98 | 0.12 | – | – | – | – | – | – | –
5 | O=C(NNc1ccc(Cl)cc1)c1cnccn1 [Compound 9e] | 1.95 | 3.9 | 7.8 | >31.3 | 1.95 | 7.8 | 0.98 | – | – | – | – | – | – | –
6 | O=C(NNc1ccc(F)cc1F)c1ccc(Br)cn1 [Compound 4g] | – | – | – | – | – | – | – | 7.8 (≈ 23.8 µM) | 0.49 (≈ 1.49 µM) | 3.9 (≈ 11.9 µM) | > 31.3 | 3.9 (≈ 11.9 µM) | 3.9 (≈ 11.9 µM) | 1.95 (≈ 5.94 µM)
7 | O=C(NNc1cc(Cl)cc(Cl)c1)c1cnccn1 [Compound 9j] | – | – | – | – | – | – | – | 15.6 (≈ 55.1 µM) | 0.98 (≈ 3.46 µM) | 3.9 (≈ 13.8 µM) | > 31.3 | 7.8 (≈ 27.6 µM) | 3.9 (≈ 13.8 µM) | 0.49 (≈ 1.73 µM)
8 | O=C(NNc1ccc(Cl)cc1)c1ncc(F)cc1F [Compound 7e] | 3.9 | 1.95 | 15.6 | >31.3 | 7.8 | >31.3 | 1.95 | – | – | – | – | – | – | –
9 | O=C(NNc1ccc(Cl)cc1)c1ccc(F)cc1F [Compound 1e] | 3.9 | 15.6 | 31.3 | >31.3 | 31.3 | 31.3 | 1.95 | – | – | – | – | – | – | –
10 | COc1ccc(NNC(=O)c2cccc(F)n2)cc1 [Compound 5f] | – | – | – | – | – | – | – | 0.98 (≈ 3.75 µM) | 0.49 (≈ 1.88 µM) | 7.8 (≈ 29.9 µM) | > 31.3 | 1.95 (≈ 7.46 µM) | 15.6 (≈ 59.7 µM) | 0.24 (≈ 0.919 µM)
